Measurements taken from patent US20230158071A1, “TUMOR COMBINED IMMUNOTHERAPY” (CRAGE medical Co., Limited, priority 2018, published 2023).

Tested on: E0771-EGFRvIII orthotopic breast cancer xenografts
Assay: Mouse E0771-EGFRvIII orthotopic breast cancer xenografts, olaparib and CAR-T
Assay type: in vivo, C57BL/6 mice
Settings: olaparib 50 mg/kg i.p. with CAR-T cells
Method: (1) Establishment of mouse orthotopic breast cancer model and respective treatment in groups:
E0771-EGFRvIII cells in the logarithmic growth phase and growing well are collected, inoculating 5×10^5 target cells at right side position of the third pair of accessory breasts of C57BL/6 mice (mice with normal immune system), and the inoculating day is recorded as the first day (i.e., Day 1).
On the 10th day after tumor inoculation (i.e. Day 10), mouse T cells are taken and 806-mCD28z-CAR-T cell line is constructed as described in step 1 of this example.
On the 14th day after tumor inoculation (i.e., Day 14), the volume of the tumor reaches about 150 mm^3, and the mice are divided in groups:
The formula of olaparib stock solution: olaparib is added with 4% DMSO+30% PEG300+66% ddH2O in sequence; a solution of 5 mg/mL is used as the stock solution. […]
(2) Detection of tumor volume. The tumor volume changes of mice are observed and measured continuously, and recorded three times a week. […]
(4) Detection of CAR-T copy number in tumor tissues. Tumor tissues of each group of mice are ground to extract DNA, and the sequence of retroviral vector fragment is detected by Taqman probe method to determine the DNA copy number of 806-mCD28z-CAR. […]

O=C(c1cc(Cc2n[nH]c(=O)c3ccccc23)ccc1F)N1CCN(C(=O)C2CC2)CC1 [olaparib]
toxicity of combining olaparib with CAR-T cell therapy (from body weights): do not cause significant toxicity
